In ChEMBL document CHEMBL1201862, “PubChem BioAssay data set” (2004) one finds IC50 data, which are given here for two compounds.

The structures appear in SMILES notation. Calls of active or inactive are those of the source. Cut-off read from the data, not from the text of the source: actives have a measured IC50 and inactives only a lower limit.

In this assay the target is Envelope glycoprotein gp160 (Human immunodeficiency virus 1, UniProt Q6QLK5). The assay is described as follows: cell-free HIV fusion peptide-binding blockers – biochemical, uHTS, fluorescence dequenching, […] (AID 1986).
Chain of Envelope glycoprotein gp160 (Q6QLK5 whole entry, the tested form may be a part): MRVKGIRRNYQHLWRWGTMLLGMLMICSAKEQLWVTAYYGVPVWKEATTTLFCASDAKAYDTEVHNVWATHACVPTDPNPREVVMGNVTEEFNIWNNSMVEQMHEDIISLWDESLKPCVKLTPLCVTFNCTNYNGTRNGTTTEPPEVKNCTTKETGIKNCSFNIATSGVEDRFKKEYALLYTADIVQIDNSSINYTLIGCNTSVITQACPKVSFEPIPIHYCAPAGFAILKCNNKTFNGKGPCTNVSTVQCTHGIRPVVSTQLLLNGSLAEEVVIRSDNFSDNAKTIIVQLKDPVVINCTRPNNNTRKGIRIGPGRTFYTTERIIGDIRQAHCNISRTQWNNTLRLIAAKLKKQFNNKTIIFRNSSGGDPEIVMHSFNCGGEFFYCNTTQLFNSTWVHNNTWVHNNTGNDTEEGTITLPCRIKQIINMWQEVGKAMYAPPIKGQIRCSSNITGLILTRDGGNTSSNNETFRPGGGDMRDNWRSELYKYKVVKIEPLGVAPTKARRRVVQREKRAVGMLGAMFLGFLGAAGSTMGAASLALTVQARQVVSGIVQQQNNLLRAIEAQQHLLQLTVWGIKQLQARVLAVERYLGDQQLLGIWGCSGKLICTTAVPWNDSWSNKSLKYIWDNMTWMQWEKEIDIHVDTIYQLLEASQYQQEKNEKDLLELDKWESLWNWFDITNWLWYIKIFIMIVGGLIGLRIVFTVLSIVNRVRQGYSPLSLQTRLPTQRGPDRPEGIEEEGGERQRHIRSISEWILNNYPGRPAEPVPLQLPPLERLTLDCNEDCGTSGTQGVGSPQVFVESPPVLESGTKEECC

Usually IC50 stands for the concentration needed to halve the response being measured. In the case of `O=C(O)CSc1nc(-c2ccc(Cl)cc2)nc2c1oc1ccccc12`, the 50% inhibitory concentration (IC50) is 15.4 µM (active).
The figure for `COc1cccc(-c2nc(SCC(=O)Nc3nc(-c4ccccc4)c(C)s3)[nH]c(=O)c2C#N)c1` is 10.3 µM (active).
